Laboratory results as given in PubChem BioAssay (NCI).
Values joined by “and” are separate entries in the source; they are usually repeats but may differ in a detail not shown here. Equal entries are not always repeated.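 Values below derive from 48-hour exposures of cells grown in 96-well plates, with endpoints linearly interpolated between the two concentrations bracketing the appropriate inhibition level. GI50: concentration for 50% inhibition of growth. TGI is the concentration that stops growth completely.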

Experiments:
Assay in all cases: inhibition of tumour cell growth, NCI panel, 48 h
HT29 colon = tested on: HT29 colon
HCT-15 colon = tested on: HCT-15 colon
COLO 205 colon = tested on: COLO 205 colon
HOP-62 NSCLC = tested on: HOP-62 NSCLC
U251 CNS = tested on: U251 CNS
MDA-MB-435 = tested on: MDA-MB-435
M14 melanoma = tested on: M14 melanoma
NCI-H23 lung = tested on: NCI-H23 lung
A498 renal = tested on: A498 renal
SK-MEL-28 melanoma = tested on: SK-MEL-28 melanoma

SMILES | GI50 (HT29 colon) | TGI (HT29 colon) | GI50 (HCT-15 colon) | TGI (HCT-15 colon) | GI50 (COLO 205 colon) | TGI (COLO 205 colon) | GI50 (HOP-62 NSCLC) | TGI (HOP-62 NSCLC) | GI50 (U251 CNS) | TGI (U251 CNS) | GI50 (MDA-MB-435) | TGI (MDA-MB-435) | GI50 (M14 melanoma) | TGI (M14 melanoma) | GI50 (NCI-H23 lung) | TGI (NCI-H23 lung) | GI50 (A498 renal) | TGI (A498 renal) | GI50 (SK-MEL-28 melanoma) | TGI (SK-MEL-28 melanoma)
COc1cc(/C(=C2/O[C@@H]([C@H]3COC(C)(C)O3)[C@H]3OC(C)(C)O[C@@H]23)c2ccc3ccccc3c2)cc(OC)c1OC | 3.64 µM | 16.3 µM | 76.8 µM | > 100 µM | 6.97 µM | > 100 µM | 9.78 µM | 31.4 µM | 3.12 µM | 11.8 µM | 3.61 µM | 17.5 µM | 6.7 µM | 23.8 µM | 5.43 µM | > 100 µM | 17.8 µM | 74.6 µM | 2.86 µM | 9.65 µM
Cc1ccc(NC(=O)c2cc3ccccc3c(N=Nc3cc(S(=O)(=O)O)ccc3O)c2O)c(C)c1 |  | 58.3 µM |  | > 100 µM |  | > 100 µM |  | > 100 µM |  | > 100 µM |  | > 100 µM |  | 37.4 µM |  | 56.6 µM |  | > 100 µM |  | > 100 µM
C[C@]12CC[C@@H]3c4cc(O)c(O)cc4CC[C@H]3[C@@H]1CC[C@@H]2O | 27.2 µM | 61.3 µM | 0.877 µM | 24.8 µM | 28.9 µM | > 73.3 µM | 4.08 µM | 54.6 µM | 6.86 µM | 35.1 µM | 0.286 µM | 1.1 µM | 1.35 µM | > 100 µM | 5.31 µM | > 83.7 µM | 19.7 µM | 62.3 µM | 5.47 µM | > 100 µM
COc1ccc2c(c1)CC[C@@H]1[C@@H]2CC[C@]2(C)c3c(cc(C(=O)O)c4sccc34)C[C@@H]12 | 13.8 µM | 34 µM | 10.8 µM | 32 µM | 16.4 µM | 70 µM | 19.6 µM | 38.5 µM | 16.4 µM | 47.5 µM | 18.4 µM | 39.6 µM | 18.2 µM | 37.1 µM | 18.5 µM | 39.2 µM | 15.6 µM | 34.9 µM | 15.8 µM | 33.4 µM
CCCCCCn1c(-c2ccc(C(=O)O/N=C(\N)c3ccc4ccccc4c3)cc2)nc(-c2ccccc2)c1-c1ccccc1 | > 100 µM | > 100 µM | 7.53 µM | > 100 µM | > 100 µM | > 100 µM | 5.77 µM | > 100 µM | 7.64 µM | > 100 µM | 7.42 µM | > 100 µM | > 83.5 µM | > 100 µM | 7.57 µM | > 100 µM | 2.09 µM | > 26 µM | > 100 µM | > 100 µM
COC(=O)C1=COC(C)C2CN3CCc4c([nH]c5cc(OC)c(OC)cc45)C3CC12 (stereo unspecified) |  | > 100 µM and 94.5 µM |  | > 100 µM |  | > 100 µM and 86.6 µM |  | > 100 µM | > 100 µM and 47.4 µM | > 100 µM |  | > 100 µM |  | > 100 µM |  | > 100 µM |  | > 100 µM | > 100 µM and 34.2 µM | > 100 µM
CC(N)(/C=C/c1ccccc1)C(=O)O (stereo unspecified) |  | > 100 µM |  | > 100 µM |  | > 100 µM |  | > 100 µM |  | > 100 µM |  | > 100 µM |  | > 100 µM |  | > 100 µM |  | > 100 µM |  | > 100 µM
Cc1ccc(-c2cc3c4c(nc5ccccc53)C(=O)c3cccnc3-c4n2)cc1 | 8.75 µM | 22.8 µM | 12.7 µM | 49.9 µM | 16.3 µM | 30.1 µM | 15.7 µM | 37.5 µM | 9.51 µM | > 66.9 µM | 5.08 µM | 16 µM | 4.37 µM | 16.5 µM | 7.03 µM | 20.9 µM | 11.8 µM | 32.7 µM | 19.1 µM | 41.1 µM
O=C(/C(=C/c1ccc([N+](=O)[O-])cc1)SCc1ccc(Cl)cc1)c1ccc(F)cc1 | 2 µM | 4.12 µM | 1.9 µM | 4.26 µM | 3.8 µM | 14.9 µM | 13.1 µM | 35.4 µM | 1.74 µM | 3.17 µM | 2.23 µM | 5.87 µM | 3.38 µM | 16.1 µM | 3.92 µM | 21.9 µM | 13.9 µM | 38.4 µM | 4.26 µM | 16.2 µM
C[C@]12CC[C@@H]3c4cc(OC(F)F)c(OS(N)(=O)=O)cc4CC[C@H]3[C@@H]1CC[C@@H]2OS(N)(=O)=O | 2.25 µM | 22.5 µM | 0.593 µM | 15.8 µM | 2.97 µM | 21.4 µM | 3.4 µM | 38.8 µM | 1.83 µM | 20.2 µM | 0.241 µM | 3.04 µM | 0.631 µM | 17.7 µM | 2.44 µM | 21.6 µM | 0.934 µM | 4.02 µM | 2.94 µM | 20.3 µM
O=C1NC2C(=CC(O)C(O)C2O)c2cc3c(cc21)OCO3 (stereo unspecified) | 0.273 µM | 3.58 µM and 5.95 µM | 0.406 µM and 0.216 µM | 9.97 µM and 6.41 µM | 0.074 µM | 0.595 µM and 0.249 µM and 0.579 µM | 0.277 µM and 0.191 µM | 1.82 µM and 1.84 µM | 0.325 µM and 0.0688 µM | 0.437 µM and 3.07 µM |  | 0.965 µM | 0.424 µM | 1.41 µM | 0.325 µM and 0.205 µM | 2 µM and 2.84 µM | 0.904 µM and 0.568 µM | 3.64 µM and 2.69 µM | 0.201 µM | 2.06 µM and 2.88 µM
O=[N+]([O-])c1ccc(C2=Nn3c(nnc3-c3ccc(Cl)cc3)SC2)o1 |  | 11.1 µM |  | 5.99 µM |  | 4.31 µM |  | 24.9 µM |  | 31.5 µM |  | 4.39 µM |  | 14.3 µM |  | 18.6 µM |  | 31.3 µM |  | 28 µM
